Experimental data: the supplement of paper PMC7840683

Test system: HepaRG
Experiment: LDH release cytotoxicity, % of total lysis control; higher = more cytotoxic
Conditions: 48 h
Method in brief: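 Single-lot HepaRG cells on collagen I-coated 96-well plates were exposed for 48 h in duplicate, in serum-free induction medium with 0.5% DMSO, to eight-point half-log series (test chemicals top 100 µM). Total lysis wells received 0.1% Triton X, and LDH leakage into 50 µL spent medium was read as resorufin fluorescence (CytoTox-ONE, Tecan Safire). Percent cytotoxicity was normalized to on-plate vehicle and total lysis controls and averaged over the duplicates.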

CC(C)OC(=O)C(C)(C)Oc1ccc(C(=O)c2ccc(Cl)cc2)cc1 [Fenofibrate]
Conditions | LDH release cytotoxicity [%]
0.03162 µM | -0.938
0.1 µM | -0.368
0.3162278 µM | -0.7726
1 µM | -1.53
3.16228 µM | -0.41
10 µM | -0.735
31.6228 µM | -0.291
100 µM | 0.118

CC1(C)C(C(=O)OC(C#N)c2cccc(Oc3ccccc3)c2)C1(C)C (centres undefined) [Fenpropathrin]
Conditions | LDH release cytotoxicity [%]
0.03162 µM | -1.16
0.1 µM | -1.28
0.3162278 µM | 0.259
1 µM | -1.32
3.16228 µM | -1.08
10 µM | -0.114
31.6228 µM | 0.399
100 µM | 1.44

OCC1OC(OC2(CO)OC(CO)C(O)C2O)C(O)C(O)C1O (centres undefined) [Sucrose]
Conditions | LDH release cytotoxicity [%]
0.03162 µM | -1.56
0.1 µM | -2.84
0.3162278 µM | -1.3
1 µM | -1.84
3.16228 µM | -2
10 µM | -0.48
31.6228 µM | -0.542
100 µM | 1.54

CC(C1CC1)C(O)(Cn1cncn1)c1ccc(Cl)cc1 (centres undefined) [Cyproconazole]
Conditions | LDH release cytotoxicity [%]
0.0314647 µM | -2.83
0.0995 µM | -2.41
0.3146466 µM | -3.23
0.995 µM | -3.32
3.14647 µM | -3.1
9.95 µM | -2.59
31.4647 µM | -2.12
99.5 µM | 6.32

Oc1nc(O)nc(O)n1 [Cyanuric acid]
Conditions | LDH release cytotoxicity [%]
0.0314647 µM | -2.84
0.0995 µM | -3.15
0.3146466 µM | -2.69
0.995 µM | -2.08
3.14647 µM | -2.52
9.95 µM | -1.85
31.4647 µM | -1.63
99.5 µM | -0.7

CC(C)(O)C(=O)Nc1ccc([N+](=O)[O-])c(C(F)(F)F)c1 [Hydroxyflutamide]
Conditions | LDH release cytotoxicity [%]
0.01581 µM | -1.79
0.05 µM | -0.825
0.1581139 µM | -0.846
0.5 µM | -1.16
1.5811388 µM | -0.0206
5 µM | 0.0482
15.8114 µM | -1.19
50 µM | 2.46

Cc1c2ccccc2c(C)c2c1ccc1ccccc12 [7,12-Dimethylbenz(a)anthracene]
Conditions | LDH release cytotoxicity [%]
0.03162 µM | -1.46
0.1 µM | -1.68
0.3162278 µM | -1.43
1 µM | -1.27
3.16228 µM | -1.45
10 µM | -1.64
31.6228 µM | 1.86
100 µM | -0.663

CN1CCN(c2ccccc2C=C2SCCN(c3ccc(Cl)c(Cl)c3)C2=O)CC1 [Elzasonan]
Conditions | LDH release cytotoxicity [%]
0.03162 µM | 0.236
0.1 µM | 0.483
0.3162278 µM | 0.649
1 µM | -0.238
3.16228 µM | -0.446
10 µM | 0.355
31.6228 µM | 9.77
100 µM | 88.8

CCCCCOC(C)=O [Pentyl acetate]
Conditions | LDH release cytotoxicity [%]
0.03162 µM | -10.9
0.1 µM | -10.5
0.3162278 µM | -10.2
1 µM | -11
3.16228 µM | -10.3
10 µM | -10.9
31.6228 µM | -10.3
100 µM | -10.02

Cc1oc(-c2ccccc2)nc1CCOc1ccc(CC(Nc2ccccc2C(=O)c2ccccc2)C(=O)O)cc1 (centres undefined) [Farglitazar]
Conditions | LDH release cytotoxicity [%]
0.03162 µM | -1.27
0.1 µM | -1.73
0.3162278 µM | -0.126
1 µM | -1.05
3.16228 µM | -2.03
10 µM | -1.81
31.6228 µM | 67.1
100 µM | 78.6

Oc1ccc2ccc3cccc4ccc1c2c34 [1-Hydroxypyrene]
Conditions | LDH release cytotoxicity [%]
0.03162 µM | -0.176
0.1 µM | -0.855
0.3162278 µM | -1.52
1 µM | -1.23
3.16228 µM | -1.18
10 µM | -0.495
31.6228 µM | -0.838
100 µM | 0.111

CCCCC(CC)COP(=O)(OCC(CC)CCCC)OCC(CC)CCCC (centres undefined) [Tris(2-ethylhexyl) phosphate]
Conditions | LDH release cytotoxicity [%]
0.03162 µM | -1.762
0.1 µM | -1.14
0.3162278 µM | -1.21
1 µM | -1.28
3.16228 µM | -1.23
10 µM | -1.26
31.6228 µM | -0.783
100 µM | 0.473

CC(C)(c1ccc(O)cc1)c1ccc(O)cc1 [Bisphenol A]
Conditions | LDH release cytotoxicity [%]
0.03162 µM | -1.32
0.1 µM | -0.356
0.3162278 µM | -1.1
1 µM | -1.37
3.16228 µM | -0.158
10 µM | 0.439
31.6228 µM | 0.463
100 µM | 1.47

CCCCOCCO [2-Butoxyethanol]
Conditions | LDH release cytotoxicity [%]
0.03162 µM | -2.12
0.1 µM | -0.886
0.3162278 µM | -1.1
1 µM | -2.21
3.16228 µM | -1.06
10 µM | -0.332
31.6228 µM | -0.824
100 µM | 1.02

CCC12COCN1COC2 [7a-Ethyldihydro-1H,3H,5H-oxazolo(3,4-c)oxazole]
Conditions | LDH release cytotoxicity [%]
0.03162 µM | -1.45
0.1 µM | -1.96
0.3162278 µM | -1.68
1 µM | -1.43
3.16228 µM | -1.46
10 µM | -1.34
31.6228 µM | 0.0307
100 µM | 0.471

CCCCCCCCCCCCCCCC [Hexadecane]
Conditions | LDH release cytotoxicity [%]
0.03162 µM | -0.113
0.1 µM | -0.43
0.3162278 µM | -1.34
1 µM | -1.31
3.16228 µM | -0.091
10 µM | -0.203
31.6228 µM | 0.166
100 µM | -0.385

OCC(O)CO [Glycerol]
Conditions | LDH release cytotoxicity [%]
0.03162 µM | -1.51
0.1 µM | -1.11
0.3162278 µM | -1.56
1 µM | -1.79
3.16228 µM | -1.43
10 µM | -1.14
31.6228 µM | -0.926
100 µM | -0.545

CC1=CC(=O)CC(C)(C)C1 [Isophorone]
Conditions | LDH release cytotoxicity [%]
0.03162 µM | -0.205
0.1 µM | 0.529
0.3162278 µM | -0.132
1 µM | -0.235
3.16228 µM | 0.145
10 µM | 1.04
31.6228 µM | 0.514
100 µM | 1.74
